Experimental data taken from patent publication EP1591123A1, “USES OF NARINGENIN, NARINGIN AND SALTS THEREOF AS EXPECTORANTS IN THE TREATMENT OF COUGH, AND COMPOSITIONS THEREOF” (Su, Wei-wei, priority 2003, dated 2004).
“Also recorded” adds a separate entry of the source. Structures can show the parent of a compound that is named as a salt.

Key:
[1] = tested on: NIH little mice; assay: Toxicological experiment, single oral dose, 10 days observation (Examples 32-35); type: in vivo; settings: for dosage without toxic reaction as multiple of the normal dosage: oral dosage tested relative to normal dose for human beings; for changes in little mice's weight / toxic reaction / deaths of little mice / pathological inspection of each apparatus: oral; for changes in little mice's weight / toxic reaction: ten days; for deaths of little mice / pathological inspection of each apparatus: tenth day
Protocol: (§1) With temperature in the range of 24±1 °C and humidity in the range of 65±5 %,choose 20 NIH little mice which are 7-8 years old ,healthy and clean, male and female for each half ,their weights are between 20 and 22 gram.. Antisepsis the feed and water, before and in the layoff period of the test, all the mice should be feed under the normal feeding condition.
(§2) Dissolve Naringin in 0.5 % Tween80, the concentration is 300mg/ml,this liquor is given to little mice by oral access, the dosage is 0.2ml/20g weight of little mice. After administration ,they are observed for 1,4,8,12 hours, and then once per 12 hours. Observe the deaths of little mice ,and record the changes in little mice's weight as well as other symptoms. In the tenth day, kill little mice by breaking their necks, and take each apparatus for pathological inspection.
as §1, with “of 25±1” for “of 24±1”, “of 75±5” for “of 65±5”, “[…], healthy” for “years old ,healthy”, “half , their” for “half ,their”, “between 18.5” for “between 20”, “and 20.5” for “and 22”
as §2, with “Naringin sodium salt medicine” for “Naringin”, “in brine,” for “in 0.5 % Tween80,”, “is 300mg/ml, this” for “is 300mg/ml,this”, “little mice, and” for “little mice ,and”, “mice's weights” for “mice's weight”, “pathological inspection.. […]” for “pathological inspection.”

[2] = tested on: mice; assay: Dispel phlegm test of Naringenin, Phenol Red excretion in trachea (Example 31); type: in vivo; settings: for Dispel phlegm ratio: group given drug / blank control group x 100%; for Excretion quantity of Phenol Red / Rectified excretion quantity of Phenol Red: mice, oral, X±S; for Rectified excretion quantity of Phenol Red: excretion quantity / weight of animal
Description: • 1. Animal: 80 healthy female mice weighing 18.5-22.0g was grouped into 8 groups random after labeled, which was selected from 90 female mice weighing 18.0-22.1g. Every group was 10 mice. Eight groups were set including negative control group, positive control group, high dose group of Naringenin, middle dose group of Naringenin, low dose group of Naringenin, high dose group of sodium salt of Naringenin, middle dose group of sodium salt of Naringenin, low dose group of sodium salt of Naringenin. […] Sample source and preparation • 1) Blank control group: physiological saline, 0.9% NaCl; • 2) Positive control group: 0.2g Tankejing was dissolve into 10 ml 0.9% NaCl and the sample concentration was 20 mg/ml to obtain the solution for positive control. • 3) low dose group of Naringenin: 0.5 mg/ml solution of Naringenin was prepared by weighting out the appropriate amount of 5 mg Naringenin and dissolving it by ultrasonication in 10 ml physiological saline. • 4) middle dose group of Naringenin: 1.5 mg/ml solution of Naringenin was prepared by weighting out the appropriate amount of 15 mg Naringenin and dissolving it by ultrasonication in 10 ml physiological saline. • 5) high dose group of Naringenin: 4.5 mg/ml solution of Naringenin was prepared by weighting out the appropriate amount of 45 mg Naringenin and dissolving it by ultrasonication in 10 ml physiological saline. • 6) low dose group of sodium salt of Naringenin: 0.5 mg/ml solution of sodium salt of Naringenin was prepared by weighting out the appropriate amount of 5 mg sodium salt of Naringenin and dissolving it by ultrasonication in 10 ml physiological saline. • 7) middle dose group of sodium salt of Naringenin: 1.5 mg/ml solution of sodium salt of Naringenin was prepared by weighting out the appropriate amount of 15 mg sodium salt of Naringenin and dissolving it by ultrasonication in 10 ml physiological saline. • 8) high dose group of sodium salt of Naringenin: 4.5 mg/ml solution of sodium salt of Naringenin was prepared by weighting out the appropriate amount of 45 mg sodium salt of Naringenin and dissolving it by ultrasonication in 10 ml physiological saline. • 3. Experimental Method: • 1) preparations of Phenol Red calibration standard: 12.5 ng/ml solution of Phenol Red was prepared by weighting out the appropriate amount of Phenol Red and dissolving it by ultrasonication in 5% NaHCO3. The series solution including 6.25ng/ml, 3.125ng/ml, 1.5625 ng/ml, 0.7813 ng/ml, 0.3906 ng/ml, 0.1953 ng/ml, 0.0977 ng/ml, 0.0488 ng/ml was prepared by diluting, which was detected by ultraviolet spectrometer. The calibration curve was calculated by concentration of Phenol Red as y-axis and OD value as x-axis. And the excretion account of Phenol Red in mice was quantitated by calibration curve. • 2) Animals were fasted for 12 hr before dosing. • 3) Animals were oral administered with labeled number, each animal was administered with 3 min and each group was accomplished in 30 min. • 4) After administered 30 min, every animal was injected 2 ml 5% Phenol Red solution via celiac injection. The time of every animal was 3 min. • 5) Every animal was executed with 3 min interval after celiac injection 30 min, and animal trachea was peeled off with forceps after neck skin sniped, which was riveted on operating table. • 6) plasma and Phenol Red adhered to trachea ektexine was sweeped by 0.9% NaCl solution with an injector. And filter paper was used to blot up the solution. • 7) Scissors cut down the animal trachea including thyroid cartilage and trachea back-end. • 8) The trachea was set in test tube with 1.5 ml 5% NaHCO3. • 9) The experiment of every animal was completed in 3 min. […]

C[C@@H]1O[C@@H](O[C@H]2[C@H](Oc3cc(O)c4c(c3)O[C@H](c3ccc(O)cc3)CC4=O)O[C@H](CO)[C@@H](O)[C@@H]2O)[C@H](O)[C@H](O)[C@H]1O [sodium salt of Naringin]
dosage without toxic reaction as multiple of the normal dosage [1]: 230
changes in little mice's weight ([1]; 3.0g/kg): weights of little mice are not found lightening
toxic reaction ([1]; 3.0g/kg, listed as Naringin sodium salt): toxic reaction can't be found
deaths of little mice ([1]; 3.0g/kg): all little mice are still alive
pathological inspection of each apparatus ([1]; 3.0g/kg): pathological changes have not been found

C[C@@H]1O[C@@H](O[C@H]2[C@H](Oc3cc(O)c4c(c3)O[C@H](c3ccc(O)cc3)CC4=O)O[C@H](CO)[C@@H](O)[C@@H]2O)[C@H](O)[C@H](O)[C@H]1O [Naringin, 4', 5', 7-trihydroxyflavanone-7-rhamnoneglucoside]
dosage without toxic reaction as multiple of the normal dosage [1]: 230
changes in little mice's weight ([1]; 3.0g/kg): weights of little mice are not found lightening
toxic reaction ([1]; 3.0g/kg): toxic reaction can't be found; also recorded: haven't toxic reaction
deaths of little mice ([1]; 3.0g/kg): all little mice are still alive
pathological inspection of each apparatus ([1]; 3.0g/kg): pathological changes have not been found

O=C1CC(c2ccc(O)cc2)Oc2cc(O)cc(O)c21 (stereo not shown) [Naringenin, 4', 5, 7 -trihydroxyflavanone]
dosage without toxic reaction as multiple of the normal dosage [1]: 460
changes in little mice's weight ([1]; 6.0g/kg): weights of little mice are not found lightening
toxic reaction ([1]; 6.0g/kg): toxic reaction can't be found; also recorded: hasn't toxic reaction
deaths of little mice ([1]; 6.0g/kg): all little mice are still alive
pathological inspection of each apparatus ([1]; 6.0g/kg): pathological changes have not been found
Dispel phlegm ratio ([2]; 5 mg/kg): 146.13%
Dispel phlegm ratio ([2]; 15 mg/kg): 159.97%
Dispel phlegm ratio ([2]; 45 mg/kg): 219.85%
dispel phlegm effect ([2]; high dose group compared to positive control group of Tankejing): statistical better than Tankejing
Excretion quantity of Phenol Red ([2]; 5 mg/kg): 1.2757 ± 0.4020 ng
Rectified excretion quantity of Phenol Red ([2]; 5 mg/kg): 68.2832 ± 23.6102 ng/kg
Excretion quantity of Phenol Red ([2]; 15 mg/kg): 1.3523 ± 0.9303 ng
Rectified excretion quantity of Phenol Red ([2]; 15 mg/kg): 74.7504 ± 57.2020 ng/kg
Excretion quantity of Phenol Red ([2]; 45 mg/kg): 1.9257 ± 0.6713 ng
Rectified excretion quantity of Phenol Red ([2]; 45 mg/kg): 102.7325 ± 41.0313 ng/kg
exudates increase of mice trachea ([2]; three doses (low, middle, high), versus negative control group): statistical significance stimulate the exudates increase of mice trachea

O=C1C[C@@H](c2ccc(O)cc2)Oc2cc(O)cc(O)c21 [sodium salt of Naringenin]
dosage without toxic reaction as multiple of the normal dosage [1]: 460
changes in little mice's weight ([1]; 6.0g/kg): weights of little mice are not found lightening
toxic reaction ([1]; 6.0g/kg): toxic reaction can't be found
deaths of little mice ([1]; 6.0g/kg): all the little mice are still alive
pathological inspection of each apparatus ([1]; 6.0g/kg): pathological changes have not been found
Dispel phlegm ratio ([2]; 5 mg/kg): 148.72%
Dispel phlegm ratio ([2]; 15 mg/kg): 162.38%
Dispel phlegm ratio ([2]; 45 mg/kg): 224.93%
Excretion quantity of Phenol Red ([2]; 5 mg/kg): 1.3029 ± 0.3069 ng
Rectified excretion quantity of Phenol Red ([2]; 5 mg/kg): 69.4942 ± 16.3724 ng/kg
Excretion quantity of Phenol Red ([2]; 15 mg/kg): 1.4225 ± 0.7361 ng
Rectified excretion quantity of Phenol Red ([2]; 15 mg/kg): 75.8773 ± 39.2651 ng/kg
Excretion quantity of Phenol Red ([2]; 45 mg/kg): 1.9705 ± 0.6898 ng
Rectified excretion quantity of Phenol Red ([2]; 45 mg/kg): 105.1057 ± 36.7945 ng/kg
